Assay results as given in ChEMBL document CHEMBL1124229, “Spiro hydantoin aldose reductase inhibitors” (J Med Chem, 1988).

Key:
Rattus norvegicus [1] = organism: Rattus norvegicus; test: Ability to cause 50% reduction in sorbitol levels of sciatic nerve of streptozotocinized rats was determined; format: functional
[2] = target: T1, Aldo-keto reductase family 1 member B1 (Bos taurus, UniProt P16116); test: In vitro inhibition of partially purified calf lens aldose reductase
[3] = target: T1, Aldo-keto reductase family 1 member B1; test: In vitro inhibitory activity towards partially purified calf lens aldose reductase; value ranges from 10E-6 - 10E-7
[4] = target: T1, Aldo-keto reductase family 1 member B1; test: In vitro inhibition of partially purified calf lens aldose reductase; value ranges from 10E-5 to 10E-6
[5] = target: T1, Aldo-keto reductase family 1 member B1; test: Inhibition of partially purified calf lens aldose reductase; value ranges from 10E-4 to 10e-5 M
[6] = pKa in DMF/H2O was measured; format: physicochemical
Rattus norvegicus [7] = organism: Rattus norvegicus; test: Dose causing 50% reduction in sorbitol accumulation in sciatic nerves of streptozotocinized rats, (tid)
Rattus norvegicus [8] = organism: Rattus norvegicus; test: 50% reduction in sorbitol accumulation in isolated sciatic nerves incubated in the presence of high glucose concentration; format: functional; details: Sciatic nerve
[9] = Rattus norvegicus, Sciatic nerve, read-out: ED50

SMILES | ED50 (Rattus norvegicus [1]; [9]) [mg/kg] | IC50 [2] [µM] | also measured
O=C1NC(=O)C2(CCCc3ccccc32)O1 (configuration not stated) | > 50 | 10 | 
O=C1NC(=O)C2(CCSc3ccc(Cl)cc32)N1 (configuration not stated) | 2.5 |  | IC50 [3]: 1 µM
O=C1NC(=O)C2(CCOc3c(Cl)cc(Cl)cc32)N1 (configuration not stated) | 0.25 | < 0.1 | 
O=C1NC(=O)C2(CCCC2c2ccccc2)N1 (configuration not stated) | > 25 | > 100 | 
O=C1NC(=O)C2(CCSc3c(Cl)cc(Cl)cc32)N1 (configuration not stated) |  | < 0.1 | 
O=C1NC(=O)C2(CCOc3c(F)cccc32)N1 (configuration not stated) |  | < 100 | 
O=C1NC(=O)C2(CCC(C(=O)O)c3ccccc32)N1 (configuration not stated) |  | > 100 | 
COc1cccc2c3c(ccc12)C1(CCO3)NC(=O)NC1=O (configuration not stated) | > 1.5 | 0.1 | 
O=C1NC(=O)C2(CCC(c3ccccc3)c3ccccc32)N1 (configuration not stated) | > 25 |  | 
O=C1NC(=O)C2(CCCc3sccc32)N1 (configuration not stated) | 25 | 100 | 
O=C1NC(=O)C2(CCSc3cc(Cl)ccc32)N1 (configuration not stated) | > 1.5 | 1 | 
O=C1NC(=O)C2(CCc3cc4c(cc32)OCO4)N1 (configuration not stated) | > 5 |  | IC50 [4]: 10 µM
O=C1NC(=O)C2(CCOc3c2ccc2ccccc32)N1 (configuration not stated) | > 1.5 | < 100 | 
Cc1cc(C)c2c(c1C)OCCC21NC(=O)NC1=O (configuration not stated) |  | 1 | 
Cc1cc2c(n1C)CCCC21NC(=O)NC1=O (configuration not stated) | > 25 | > 100 | 
O=C1NC(=O)C2(CCOc3ccccc32)N1 (configuration not stated) | 5 | 10 | 
O=C1CC2(CCc3ccccc32)C(=O)N1 (configuration not stated) | > 2.5 | > 100 | 
O=C1NCNC12CCCc1ccccc12 (configuration not stated) | 25 | > 100 | 
O=C1NC(=O)C2(CCSc3ccc(Br)cc32)N1 (configuration not stated) | 2.5 |  | IC50 [3]: 1 µM
O=C1N=C(O)O[C@@]12CCOc1ccc(Cl)cc12 |  |  | IC50 [5]: 100 µM
O=C(O)C1CCSc2cc(Cl)c(Cl)cc21 (configuration not stated) |  | 10 | 
COc1cc2c(c(OC)c1OC)C1(CC2)NC(=O)NC1=O (configuration not stated) |  | 100 | 

SMILES | ED50 (Rattus norvegicus [1]; [9]) [mg/kg] | IC50 [2] [µM] | also measured
COc1ccc(Cl)c2c1CCCC21NC(=O)NC1=O (configuration not stated) | > 25 | > 100 | 
O=C1NC(=O)C2(CCOc3ccc(Cl)cc32)O1 (configuration not stated) | > 1.5 |  | 
O=C1NC(=O)C2(CCc3ccccc32)O1 (configuration not stated) | > 25 |  | 
O=C1NC(=O)C2(CCCCc3ccccc32)N1 (configuration not stated) | > 25 | > 100 | 
O=C1NC(=O)C2(CCc3ccc(O)cc32)N1 (configuration not stated) | > 10 |  | IC50 [5]: 100 µM
O=C1NC(=O)C2(CCOc3c(-c4ccccc4)cccc32)N1 (configuration not stated) | 10 |  | 
COc1ccc2c(c1)C1(CCS2)NC(=O)NC1=O (configuration not stated) | > 5 | 10 | 
O=C1NC(=O)C2(CCSc3c(Cl)cccc32)N1 (configuration not stated) | > 1.5 | 100 | 
O=C1NC(=O)C2(CCOc3ccc(-c4ccccc4)cc32)N1 (configuration not stated) | > 1.5 | < 100 | 
O=C1NCC2(CCc3ccccc32)N1 (configuration not stated) |  | > 100 | 
O=C1NC(=O)C2(CCSc3c(Cl)ccc(Cl)c32)N1 (configuration not stated) |  | > 100 | 
O=C1NC(=O)C2(CCn3c(=O)ccc4cc(Cl)cc2c43)N1 (configuration not stated) | > 1.5 | < 0.1 | 
O=C1NC(=O)[C@]2(CCSc3ccc(F)cc32)N1 |  |  | IC50 [4]: 10 µM
COc1ccc(Cl)cc1C1(C)NC(=O)NC1=O (configuration not stated) |  | > 100 | 
O=C1NC(=O)C2(CCOc3cc(Cl)c(Cl)cc32)N1 (configuration not stated) | < 1.5 | < 0.1 | 
NC(=O)NC(=O)C1CCc2ccccc21 (configuration not stated) | > 10 | 100 | 
CC1CCc2ccccc2C12NC(=O)NC2=O (configuration not stated) | > 25 | 100 | 
O=C1NC(=O)C2(CCCc3occc32)N1 (configuration not stated) | 25 |  | 
O=C1NC(=O)C2(CCCC3CCCCC32)N1 (configuration not stated) | < 25 | > 100 | 
CC(C)(C)c1ccc2c(c1)C1(CCO2)NC(=O)NC1=O (configuration not stated) |  |  | IC50 [5]: 100 µM
Cc1ccc(C)c2c1OCCC21NC(=O)NC1=O (configuration not stated) | > 1.5 | 1 | 
O=C1NC(=O)C2(CCOc3ccc(Cl)cc32)C(=O)N1 | > 10 |  | IC50 [5]: 100 µM

SMILES | ED50 (Rattus norvegicus [1]; [9]) [mg/kg] | IC50 [2] [µM] | also measured
O=C1NC(=O)C2(N1)c1ccccc1CCC2c1ccccc1 (configuration not stated) | > 25 | > 100 | 
O=C1NC(=O)C2(CCSc3ccc(F)cc32)N1 (configuration not stated) | 1.5 |  | IC50 [3]: 1 µM
Cc1cc(Cl)cc2c1OCCC21NC(=O)NC1=O (configuration not stated) | < 1.5 | < 0.1 | 
O=C1NCC2(CCOc3ccc(Cl)cc32)N1 (configuration not stated) | > 10 | 10 | 
CC1CCC2(NC(=O)NC2=O)c2ccccc21 (configuration not stated) | > 25 | 100 | 
O=C1NC(=O)C2(CCOc3c2ccc2cccnc32)N1 (configuration not stated) | > 1.5 | 10 | 
COc1ccc2c(c1)CCC21NC(=O)NC1=O (configuration not stated) | > 25 | 10 | 
O=C1NC(=O)[C@@]2(CCOc3ccc(Cl)cc32)O1 | 2.5 | 0.1 | pKa [6]: 5.6; ED50 (Rattus norvegicus [7]): 1e-05 M/kg; IC50 (Rattus norvegicus [8]): 10 µM
CSc1ccc2c(c1)C1(CCO2)NC(=O)NC1=O (configuration not stated) | < 25 | 1 | 
O=C(O)C1CCSc2ccc(Cl)cc21 (configuration not stated) |  | < 100 | 
c1ccc2c(c1)CCC21CCNC1 (configuration not stated) | > 25 | > 100 | 
Cc1cc(Cl)cc2c1OCCC2C(=O)O (configuration not stated) |  |  | IC50 [4]: 10 µM
O=C1CCC2(CCCc3ccccc32)C(=O)N1 (configuration not stated) | > 25 | > 100 | 
COc1ccc2c(c1)C1(CCO2)NC(=O)NC1=O (configuration not stated) | > 2.5 |  | IC50 [4]: 10 µM
O=C1NC(=O)[C@@]2(CCSc3ccc(F)cc32)N1 | 0.75 | < 0.1 | 
O=C1NC(=S)NC12CCCc1ccccc12 (configuration not stated) |  | > 100 | 
O=C1NC(=O)[C@]2(CCOc3ccc(F)cc32)N1 | 25 |  | 
O=CNC(=O)NC1CCc2ccccc21 (configuration not stated) | > 10 | > 100 | 
O=C1NC(=O)C2(Cc3ccccc3C2)N1 | > 25 | > 100 | 
O=C1NC(=O)C2(CCCCC2)N1 | > 25 | 100 | 
O=C1NC(=O)C2(CCc3ccc(F)cc32)N1 (configuration not stated) | 5 |  | IC50 [5]: 100 µM
CC(C)(C)c1ccc2c(c1)C1(CCS2)NC(=O)NC1=O (configuration not stated) |  |  | IC50 [5]: 100 µM

SMILES | ED50 (Rattus norvegicus [1]; [9]) [mg/kg] | IC50 [2] [µM] | also measured
CS(=O)(=O)c1ccc2c(c1)C1(CCO2)NC(=O)NC1=O (configuration not stated) |  |  | IC50 [5]: 100 µM
O=C(O)CC1(CC(=O)O)CCCC1 | ~500 |  | IC50 [4]: 10 µM; IC50 [3]: 1 µM
O=C1NC(=O)C2(CCOc3ccc(CN4CCCCC4)cc32)N1 (configuration not stated) |  | 100 | 
O=C1NC(=O)C2(CC[S+]([O-])c3ccc(F)cc32)N1 (configuration not stated) | > 1.5 |  | IC50 [3]: 1 µM
COc1cc2c(cc1OC)C1(CC2)NC(=O)NC1=O (configuration not stated) | 10 |  | IC50 [4]: 10 µM
O=C1NC(=O)C2(CCOc3c(Cl)cccc32)N1 (configuration not stated) | > 1.5 | 1 | 
COc1cc2c(cc1OC)C1(CCC2)NC(=O)NC1=O (configuration not stated) | > 5 |  | IC50 [5]: 100 µM
O=C1NC(=O)C2(CCOc3cc(C(F)(F)F)ccc32)N1 (configuration not stated) | 5 | 1 | 
O=C(O)C1CCOc2c(Cl)cc(Cl)cc21 (configuration not stated) |  | 10 | 
S=C1NC(=S)C2(CCCc3ccccc32)N1 (configuration not stated) | > 25 | > 100 | 
O=C1NC(=O)C2(CCCc3[nH]ccc32)N1 (configuration not stated) | > 25 | > 100 | 
COc1ccc2c(c1)C1(CC2)NC(=O)NC1=O (configuration not stated) | 10 | 10 | 
Cc1ccc2c(c1)C1(CCO2)NC(=O)NC1=O (configuration not stated) | 5 |  | IC50 [4]: 10 µM
O=C1NC(=O)C2(CCOc3ccc4ccccc4c32)N1 (configuration not stated) | > 1.5 | 10 | 
COc1ccc(Cl)c2c1C1(CCO2)NC(=O)NC1=O (configuration not stated) |  | > 100 | 
O=C1NC(=O)C2(CCS(=O)(=O)c3ccc(F)cc32)N1 (configuration not stated) | 2.5 |  | IC50 [3]: 1 µM
CN1C(=O)N(C)C2(CCCc3ccccc32)C1=O (configuration not stated) | 25 | > 100 | 
O=C1NC(=O)C2(CCSc3cc(Cl)c(Cl)cc32)N1 (configuration not stated) | 2.5 | < 0.1 | 
O=C(O)C1Cc2ccccc2C1 |  | 100 | 
CN1CCC2(NC(=O)NC2=O)c2ccccc21 (configuration not stated) | > 25 |  | IC50 [5]: 100 µM
O=C(O)C1CCCc2ccccc21 (configuration not stated) |  | > 100 | 
O=C(O)C1CCSc2ccccc21 (configuration not stated) |  | 100 | 

SMILES | ED50 (Rattus norvegicus [1]; [9]) [mg/kg] | IC50 [2] [µM] | also measured
O=C1NC(=O)C2(CCS(=O)(=O)c3ccccc32)N1 (configuration not stated) | 20 |  | IC50 [4]: 10 µM
O=C1CC2(CCOc3ccc(Cl)cc32)C(=O)N1 (configuration not stated) | > 5 | < 100 | 
NC(=O)C1(NC=O)CCc2ccccc21 (configuration not stated) | > 10 | 100 | 
COc1cccc2c1CCCC21NC(=O)NC1=O (configuration not stated) | > 25 | 10 | 
Cc1cc(C)c2c(c1)C1(CCO2)NC(=O)NC1=O (configuration not stated) | > 1.5 | 1 | 
O=C1NC(=O)C2(CCCc3ncccc32)N1 (configuration not stated) | 10 | 10 | 
O=C(O)C1CCc2ccccc21 (configuration not stated) |  | > 100 | 
O=C(O)C1CCOc2c1cc(Cl)c1ccccc21 (configuration not stated) | > 25 | 1 | 
O=C(O)C1CCOc2ccccc21 (configuration not stated) |  | 100 | 
O=C1NC(=O)C2(CCOc3ccc(Oc4ccccc4)cc32)N1 (configuration not stated) | 25 |  | 
NC(=O)c1ccc2c(c1)C1(CCO2)NC(=O)NC1=O (configuration not stated) | > 100 |  | IC50 [5]: 100 µM
O=C1NC(=O)C2(CCS(=O)(=O)c3c(Cl)cc(Cl)cc32)N1 (configuration not stated) | > 1.5 | 0.1 | 
O=C1CC2(CCCc3ccccc32)C(=O)N1 (configuration not stated) | 5 | > 100 | 
O=C1CC2(CCCc3ccccc32)CN1 (configuration not stated) | > 25 | > 100 | 
O=C1NC(=O)C2(CCOc3ccc(Br)cc32)N1 (configuration not stated) | < 1.5 |  | IC50 [3]: 1 µM
CN(C)S(=O)(=O)c1ccc2c(c1)C1(CCO2)NC(=O)NC1=O (configuration not stated) | > 5 | 100 | 
O=C1NC(=O)[C@@]2(CCOc3ccc(F)cc32)N1 (stereo in doubt; 32) [SORBINIL] |  |  | ED50 (Rattus norvegicus [1]): 0.75 mg/kg
O=C1NC(=O)[C@@]2(CCOc3ccc(F)cc32)N1 (stereo in doubt; 115) [SORBINIL] |  |  | pKa [6]: 8.7; ED50 (Rattus norvegicus [7]): 1e-05 M/kg; IC50 (Rattus norvegicus [8]): 1 µM; ED50 (Rattus norvegicus [1]): 0.25 mg/kg
O=C1NC(=O)C(c2ccccc2)(c2ccccc2)N1 [PHENYTOIN] | > 250 | > 100 | 
